pIC50: −log10 of the molar value. ≈ marks a conversion by molar mass, not a printed value.
How the values were obtained:
MptpB = MptpB (Mycobacterium tuberculosis, UniProt I6WXK4); assay: biochemical; design: species or system M. tuberculosis
[1] = assay type: in vitro ADME; details: human, microsomes, 1 µM
Experimental: Data analysis was performed using Excel (Microsoft, USA).
Human liver microsomes were commercially obtained (Invitrogen, USA). All microsomes were stored at -80 °C. Liver microsomal stability studies were performed manually using the substrate depletion approach, drug was incubated at 37 °C with human liver microsomes (0.5 mg.mL-1) at a final substrate concentration of 1 µM. Aliquots were removed from the incubation at 0, 5, 15, 30 and 45 min and the reaction was terminated by adding to ice-cold organic solvent. Compound concentrations were determined by LC-MS/MS analysis. The natural log of the percentage of compound remaining was plotted against each time point and the slope determined. The half-life (t1/2) and CLint were calculated using Equations 1 and 2, respectively.
CLint (µL.min-1.mg-1) = (LN(2)/t1/2(min))*1000/microsomal protein (mg.mL-1)a Eq. 2 a or cell density (106 cells.mL-1) or P450 concentration (pmol.mL-1)
Percentage liver blood flow (%LBF) was determined by dividing Cl by liver blood flow (20.7 mL/min/kg). Data analysis was performed using Excel (Microsoft, USA).

physchem = assay type: physicochemical; details: for logD: pH 7.4
Experimental: (§1) C = (CD(t) × VD) + (CA(t) × VA )
(§2) % Mass Retention = 1 − (CD(t) × VD) + (CA(t) × VA)
(§3) A = Filter Area, VD = Donor Well Volume, VA = Acceptor Well Volume, t = incubation time (secs), CA(t) = Acceptor concentration at time t, CD(t) =Donor concentration at time t, C0 = Initial Donor concentration.
(§4) No Permeability is reported for compounds where % Mass Retention exceeds 50%.
(§5) ADME determinations for compounds in Suppl. Table 2 (Data kindly supplied by […]
(§6) The chemicals used in the assay were supplied by Sigma Aldrich. Briefly, 30 µL of a 20 mM stock solution of the compound to test was added to a vial containing 1. 5 mL of pH 7.4 phosphate buffer saturated octanol and 1.5 mL of octanol saturated pH 7.4 phosphate buffer. The vial was then shaken on a reciprocating shaker at 125 rpm for 40 min.
(§7) Following centrifugation to ensure phase separation, the concentration of the compound in both the octanol and buffer phases was measured by LC -UV. The Log D was then calculated as the Log of ratio of the concentration of compound in the octanol phase to that in the […]
(§8) 1 mL of buffer was added to 1.0 mg of compound and then incubated for 24 hr (Bioshake iQ, 650 rpm, 25 °C). Following filtration under positive pressure, the concentration of compound in solution was assessed by LC -UV in comparison to the response for a kno wn […]
(§9) A known concentration of drug in plasma (20 µM) was dialysed against phosphate buffer for 18 hr at 37 °C. The concentration of compound in the protein-containing and protein-free sides of the dialysis plate were determined by LC-MS/MS. The methodology uses either 100% plasma or plasma diluted with phosphate buffer. The routine operation of the assay employed 10% plasma diluted with phosphate buffer to enable the detection of highly bound compounds. Results were corrected to reflect the result if diluted plasma was […]
(§10) Briefly, monolayer integrity was measured before the assay was initiated measuring the transepithelial electrical resistance values (Ω). Compound was added to either apical (A) or basolateral (B) chamber at a final concentration of 10 µM and after 2 hr incubation at 37 °C, an aliquot from the opposite side of the monolayer was removed and quantified by LC-MS/MS. The apparent permeability (P app) was calculated using Equation 6 :
(§11) Papp [cm.s-1] = (V/(A.C i)) × (Cf/T) Eq.6
(§12) Where V = volume of recipient chamber (mL), A = surface area of membrane insert (cm2), Ci = initial concentration of compound (µM), Cf = final concentration of compound (µM), T = assay time (s). Efflux ratio = Papp B to A / Papp A to B.

[2] = Pharmacokinetic evaluation in guinea pigs; assay type: in vivo; details: guinea pig; for AUCinf / Cmax: in vivo, po; for t1/2: oral, dose mg/kg: 13 8, 5 5, 8 3.5, 9 5
Experimental: Guinea pig males (Durkin Hartley) were used to evaluate the pharmacokinetics and tissue distribution of compounds. The route of administration was either intraperitoneal (ip) or oral (po) with dosage varying from 3.5 to 8 mg kg^–1 (op) and 2.5–4 mg kg^–1 (ip). In each case 4 samples were collected per time point at 0.1, 0.5, 2, 4, and 8 h post dose for ip and 0.25, 0.5, 2, 4, and 8 h post dose for po. Compounds were prepared in 10% DMSO, 5% Cremaphor, and 85% physiological saline for IP administration or 0.5% (v/v) Tween 80, 99.5% (v/v) 0.5% methylcellulose for oral administration. Tissue samples (n = 4) from lung, liver, and kidney were collected at the end of the study and snap frozen prior to bioanalysis.

in vitro [3] = assay type: in vitro ADME, canine; details: dog, MDCK
Experimental: as §1, §2, §3, §4, §5, §6, §7, §8, §9, §10, §11, §12

in vitro [4] = assay type: in vitro ADME; details: plasma
Experimental: as §1, §2, §3, §4, §5, §6, §7, §8
A known concentration of drug in plasma (20 µM) was dialysed against phosphate buffer for 18 hr at 37 °C. The concentration of compound in the protein-containing and protein-free sides of the dialysis plate were determined by LC-MS/MS. The methodology uses either 100% plasma or plasma diluted with phosphate buffer. […]
as §10, with “: […]” for “:”

M. tuberculosis H37Rv = assay: Acute guinea pig model of TB infection; assay type: in vivo; details: 28 days of treatment, oral daily, 13 100 mg/kg, RIF 50 mg/kg
M. tuberculosis = assay type: in vivo, guinea pig
[5] = chronic model, 28 days of treatment from day 28, oral daily, 13 100 mg/kg, RIF 50 mg/kg

MptpB, sequence (I6WXK4 whole entry, looked up): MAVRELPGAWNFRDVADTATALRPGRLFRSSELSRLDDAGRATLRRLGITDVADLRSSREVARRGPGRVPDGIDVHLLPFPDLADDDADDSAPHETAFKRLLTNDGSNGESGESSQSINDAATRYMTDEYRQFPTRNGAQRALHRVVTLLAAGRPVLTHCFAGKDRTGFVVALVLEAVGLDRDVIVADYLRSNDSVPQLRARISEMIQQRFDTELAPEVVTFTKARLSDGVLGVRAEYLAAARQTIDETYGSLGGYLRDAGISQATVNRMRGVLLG

Q: Which results are given for O=C(O)c1cc(-c2ccccc2)on1 [Compound 1, 5-Phenylisoxazole-3-carboxylic Acid]?
A: pIC50 (MptpB; IC50 (molecular formula strings csv)): < 3.30; pIC50 (MptpB; IC50 MptpB): < 3.30

Q: For O=C(O)c1noc(-c2ccccc2)c1-c1cccc(-c2cc(Cl)c(O)c(Cl)c2)c1 [Compound 5, 4-(3′,5′-Dichloro-4′-hydroxy-3-biphenyl)-5-phenylisoxazole-3-carboxylic Acid], which “HLM CLint (% LBF)” value [1] is on record?
A: 31 % LBF

Q: What about the solubility at 24 h (physchem) of the same molecule?
A: 1.18 mg/mL (≈ 2.78 mM)

Q: And the logD (physchem)?
A: 0.84

Q: And the AUCinf [2]?
A: BLQ

Q: What about the Cmax [2] of the same molecule?
A: BLQ

Q: What about the t1/2 [2] of the same molecule?
A: BLQ

Q: And the Papp at 2 h, 10 µM (in vitro [3])?
A: 8 nm/s

Q: For O=C(O)c1noc(-c2ccccc2)c1-c1cccc(-c2cc(Cl)cc(Cl)c2)c1 [Compound 8, 4-(3′,5′-Dichoro-3-biphenyl)-5-phenylisoxazole-3-carboxylic Acid], which AUCinf [2] is on record?
A: BLQ

Q: And the Cmax [2]?
A: BLQ

Q: What about the t1/2 [2] of the same molecule?
A: BLQ

Q: What does the source list for Cc1cc(-c2cccc(-c3c(C(=O)O)noc3-c3ccccc3)c2)cc(C)c1O [Compound 9, 4-(3′,5′-Dimethyl-4′-hydroxy-3-biphenyl)-5-phenylisoxazole-3-carboxylic Acid]?
A: HLM CLint (% LBF) [1]: 36.4 % LBF; fraction unbound at 18 h, 20 µM (in vitro [4]): 0.001; solubility at 24 h (physchem): > 1.25 mg/mL; logD (physchem): 1.37; AUCinf [2]: BLQ; Cmax [2]: BLQ; t1/2 [2]: BLQ; Papp at 2 h, 10 µM (in vitro [3]): 58 nm/s

Q: What does the source list for O=C(O)c1noc(-c2ccccc2)c1-c1cccc(-c2ccc(O)c(Cl)c2)c1 [Compound 10, 4-(3′-Chloro-4′-hydroxy-3-biphenyl)-5-phenylisoxazole-3-carboxylic Acid]?
A: HLM CLint (% LBF) [1]: 33 % LBF; fraction unbound at 18 h, 20 µM (in vitro [4]): 0.001; solubility at 24 h (physchem): > 1.25 mg/mL; logD (physchem): 1.3; Papp at 2 h, 10 µM (in vitro [3]): 33 nm/s; efflux ratio at 2 h, 10 µM (in vitro [3]): 0.8

Q: For O=C(O)c1noc(-c2ccccc2)c1-c1cccc(-c2ccc(O)c(F)c2)c1 [Compound 11, 4-(3′-Fluoro-4′-hydroxy-3-biphenyl)-5-phenylisoxazole-3-carboxylic Acid], which “HLM CLint (% LBF)” value [1] is on record?
A: 47.7 % LBF

Q: And the fraction unbound at 18 h, 20 µM (in vitro [4])?
A: 0.002

Q: What about the solubility at 24 h (physchem) of the same molecule?
A: > 1.25 mg/mL

Q: What about the logD (physchem) of the same molecule?
A: 0.67

Q: And the Papp at 2 h, 10 µM (in vitro [3])?
A: 27 nm/s

Q: And the efflux ratio at 2 h, 10 µM (in vitro [3])?
A: 0.7

Q: Which results are given for CO[C@H]1/C=C/O[C@@]2(C)Oc3c(C)c(O)c4c(O)c(c(/C=N/N5CCN(C)CC5)c(O)c4c3C2=O)NC(=O)/C(C)=C\C=C\[C@H](C)[C@H](O)[C@@H](C)[C@@H](O)[C@@H](C)[C@H](OC(C)=O)[C@@H]1C [RIF, rifampicin, reference compound]?
A: Lungs infection burden, average (M. tuberculosis H37Rv): BLQ; Spleen infection burden, average (M. tuberculosis H37Rv): BLQ; Lungs infection burden, average (M. tuberculosis; [5]): 3.7 log CFU; Lungs log reduction relative to vehicle (M. tuberculosis; [5]): 2.0 log; Spleen infection burden, average (M. tuberculosis; [5]): BLQ; Spleen log reduction relative to vehicle (M. tuberculosis; [5]): > 5.0 log; Lungs weight % change relative to Vehicle (M. tuberculosis; guinea pig, in vivo): -29%; Lungs weight, average (M. tuberculosis; guinea pig, in vivo): 3.8 g; Spleen weight % change relative to Vehicle (M. tuberculosis; guinea pig, in vivo): -73%; Spleen weight, average (M. tuberculosis; guinea pig, in vivo): 0.7 g
